Two compounds from PMC3435281 (PLoS ONE, 2012) can be followed below.

The test system of series [1] is human 101L-hepatoma cells. The series is described as follows: Duration of DRE-luciferase activation. The format is cell-based. Conditions: for luciferase activity: 100 nM.
The test system of another series is naïve T cells. Description: Naïve T cells in Th17 conditions, IL-17 ELISA of supernatant. It counts as cell-based, mouse. Conditions: TGF-β 4 ng/ml, IL-6 20 ng/ml, 3 days.
The subject of the next series is DBA/2J mice (AHR^d). Description: In vivo hepatic microsomal EROD activity, DBA/2J. Also noted: species or system mouse. Conditions: oral 30, 80 or 120 mg/kg, 48 hours. On the procedure:
(§1) We utilized the wild type rat hepatoma cell line, 5L, which harbors the high affinity AHR isoform, and our newly created AHR^d-15 cell line. […] Groups of control mice were given corn oil alone or BNF at the concentration of 120 mg/kg.
(§2) Figure 3 In Vitro dose response curves. A. Rat hepatoma cell lines bearing the murine AHR^d (AHR^d-15) or the rat AHR^b (5L) were incubated with increasing doses of TCDD in 96-well plates. After 40 hours, EROD activity was performed from whole cell lysate. (n = 3). […] (n = 3). C. Same assay as in A, with increasing doses of BNF. (n = 2). […] Following 48 hours, hepatic microsomal proteins were isolated and used for the assessment of EROD activity. Animals were treated in groups of 4. Error bars: S.D.
(§3) Hepatic microsomes were prepared by homogenizing 0.5 g of liver tissue in 5 mL of MENG buffer (25 mM buffer sodium morpholinopropane sulfonate buffer (pH 7.5) containing 0.025% (w/v) NaN3, 1 mM EGTA and 10% (v/v) glycerol). The homogenate was subjected to centrifugation at 10,000×g for 20 minutes, followed by centrifugation of the supernatant for 1 hour at 100,000×g and 4°C. The pellet was dissolved in 15 mM Tris-HCl buffer containing 250 mM sucrose (pH 8.0) and aliquots were stored at −80°C. Protein concentration was determined using the Bicinchoninic Acid Protein Assay Reagent (Pierce Biotechnology, Rockford, IL). […]

For series [2], the system named is naïve T-cells with allogeneic BALB/C pDCs. The series is described as follows: pDC/T cell coculture, qPCR of IDO and FoxP3. Conditions: 5 days, SU5416 500 nM, TCDD 10 nM. It counts as cell-based, mouse. The text has this:
An important role for the AHR in the immune system, and specifically T-cell differentiation, has been recognized and continues to be characterized in the literature, [7]. Some ligands of the AHR have the ability to enhance Treg differentiation from naïve T-cells (TCDD, kynurenine), while others direct differentiation towards Th17 effector cells (FICZ). […] IDO has long been known to play a role in Treg generation, and may be central to the mechanism of Dendritic Cell (DC)-directed Treg generation. […] As described in the Methods, naïve T-cells were sorted using magnetic bead separation, and placed in culture for 5 days with allogeneic pDCs separated from BALB/C mice. […] After 5 days, cells were collected and mRNA harvested for qPCR analysis of IDO and FoxP3. […] Naïve T cells were placed in culture with IL-6 and TGF-β, and harvested after 3 days of culture.
A. Spleens were harvested from mice and processed in the standard fashion. […] Same assay as A, but mRNA for CYP1B1 and IDO were measured. C.
Naive CD4^+CD25^− T cells were isolated from WT and AHR-null mice and cocultured with BALB/cJ pDCs isolated using the Miltenyi Mouse pDC Isolation Kit (Miltenyi Biotec) at a ratio of 20∶1 or 10∶1 as previously described (13). […] On day 5, cells were harvested and subjected to qPCR analysis.
Background: In qPCR the cycle at which signal appears reflects the starting amount.

In the next series the test system is C57BL/6J mice (AHR^b). The series is described as follows: In vivo hepatic microsomal EROD activity, C57BL/6J. Also noted: species or system mouse. Conditions: oral 30, 80 or 120 mg/kg, 48 hours. The method, then: as §1, §2, §3
The next series deals with human ARNT. The series is described as follows: DRE-luciferase in ARNT-deficient C4 cells transfected with ARNT. The format is cell-based. Conditions: ARNT or empty vector, 3 µM, 18 h.
Another series has as its target AHR A375V (AHR^d type) (Mus musculus, UniProt P30561, A375V). The series is described as follows: DRE-luciferase in COS-1 cells transfected with mAHR-A375V. On the procedure:
(§4) Figure 4 Splenocytes from wild-type and AHR^d mice analyzed by qPCR for CYP1A1. […] After 4 hours they were analyzed by qPCR for CYP1A1 analysis. The curves are normalized from 0 to 100% response. […] Cos-1 cells were transfected with an AHR containing the same point mutation (valine for alanine) thought to be responsible for the low affinity of the AHR^d isoform compared to AHR^b, and compared to the wild-type AHR response. These cells also harbor a luciferase gene next to the DRE. C. Cos-1 cells were exposed to TCDD. […] The graphs represent normalized data from 0 response to 100% response. They are representative of 2 independent experiments.
(§5) These cells also harbor a luciferase gene next to the DRE. […] The data in this figure is normalized from 0 to 100% response.
(§6) After 4 hours of treatment, cells were assayed with dual luciferase® reporter assay system (Promega, Madison, WI). The expressed luciferase activity was measured by MicroLumat Plus luminometer (Berthold Technologies, Hartfordshire, UK).

Series [3] has as its system CYP1A1 (induction through AHR^b). Description: CYP1A1 qPCR in wild-type splenocytes. Conditions: C57BL/6J, mouse. The method, then: As the above in vitro experiments were performed in cell lines, we next utilized AHR^b (C57BL/6J) and AHR^d congenic mice (on a C57BL/6J background). […] Normalized data was chosen to allow comparison of CYP1A1 upregulation to its maximum in AHR^b versus AHR^d mice.
Figure 4 Splenocytes from wild-type and AHR^d mice analyzed by qPCR for CYP1A1. […] After 4 hours they were analyzed by qPCR for CYP1A1 analysis. The curves are normalized from 0 to 100% response. […] Cos-1 cells were transfected with an AHR containing the same point mutation (valine for alanine) thought to be responsible for the low affinity of the AHR^d isoform compared to AHR^b, and compared to the wild-type AHR response. These cells also harbor a luciferase gene next to the DRE. C. Cos-1 cells were exposed to TCDD. […]
Spleen was harvested from mice at the time of euthanasia and single cell suspensions were made. […] The relative quantitation PCR for IDO1 (Mm00492586-m1) and GAPDH (4352339-E0806018) were performed in the Applied Biosystems 7900HT Fast Real-Time PCR System (Applied Biosystems), and TaqMan Universal PCR Master Mix (Applied Biosystems) was used as a reaction reagent. The relative quantitation PCR for Foxp3, CYP1A1, CYP1B1, and GAPDH were processed by the Bio-Rad iCycler (Bio-Rad) and iQ SYBR Green Supermix ([…]) was used as the reaction reagent.

Series [4] addresses wild-type AHR (pTarget-mAHR) (Mus musculus, UniProt P30561). Description: DRE-luciferase in COS-1 cells transfected with wild-type mAHR. The method, then:
as §4, §5, §6

The structures appear in SMILES notation. Entries after “also recorded” stand apart in the source; their conditions may differ. A value given as a limit tells only on which side of the number the result lay.

For `Cc1cc(C)c(C=C2C(=O)Nc3ccccc32)[nH]1` [SU5416, 3-(3,5-dimethyl-1H-pyrrol-2-ylmethylene)-1,3-dihydro-indole-2-one], the “luciferase activity as percent of TCDD response (1 nM)” value in series [1] is at most 20%. In addition, the luciferase activity result in [1] (4 hours) was “has activity”; in series [1] (24 hours), “no longer causes luciferase activity”. Besides, the “IL-17 protein by ELISA in the supernatant” value in the series on naïve T cells (higher doses) was “did not see this effect”; in the series with naïve T cells (low doses), “small increase”. For the same compound, the “hepatic EROD activity” value with DBA/2J mice (AHR^d) and with C57BL/6J mice (AHR^b) was “dose-dependent increase” each time. The “FoxP3 mRNA” value in series [2] is recorded as “generated; also recorded: to a greater extent than TCDD”. Also, the “IDO mRNA” value in series [2] is given as “generated; also recorded: to a greater extent than TCDD”. Besides, in the series with human ARNT, the DRE-luciferase activity entry is on record as “activity was only seen when ARNT was transfected”.

Turning to `Clc1cc2c(cc1Cl)Oc1cc(Cl)c(Cl)cc1O2` [TCDD, 2,3,7,8-tetrachlorodibenzo-p-dioxin], the “duration of DRE-binding” value in [1] (1 nM, 4 to 96 hours) is “long duration DRE-binding”. Also, the EC50 (commonly the concentration giving half of the maximal effect) came out at 2470 pM at AHR A375V (AHR^d type) and 730 pM in [4]. Moreover, the “FoxP3 mRNA” value in series [2] is “upregulation was also seen”. Further, the “IDO mRNA” value in series [2] was “upregulation was also seen”. The same compound yielded an EC50 at 4 h in [3] of 461 pM.
